Laboratory results as given in US6506708B1, “3-(heterocyclyl)-benzoylpyrazole-derivatives” (BASF Aktiengesellschaft, priority 1998, dated 2003).

How the values were obtained:
[1] = tested on: barnyard grass; assay: greenhouse post-emergence herbicidal test; type: in vivo, Echinochloa crus-galli; conditions: application rates of 0.25 or 0.125 kg/ha
Source text: (§1) The seeds of the test plants were sown separately for each species. For the post-emergence treatment, the test plants were first grown to a height of 3 to 15 cm, depending on the plant habit, and only then treated with the active compounds which had been suspended or emulsified in water. The test plants were for this purpose either sown directly and grown in the same containers, or they were first grown separately as seedlings and transplanted into the test containers a few days prior to treatment. The application rate for the post-emergence treatment was 0.25, 0.125 or 0.0625 kg of a.s. (active substance)/ha. Depending on the species, the plants were kept at 10-25° C. or […] The test period extended over 2 to 4 weeks. During this time, the plants were tended, and their response to the individual treatments was evaluated. The evaluation was carried out using a scale from 0 to 100. 100 means no emergence of the plants, or complete destruction of at least the aerial parts and 0 means no damage, or normal course of growth. The plants used in the greenhouse experiments were of the following species: [table]

[2] = tested on: lamb's-quarters; assay: greenhouse post-emergence herbicidal test; type: in vivo, Chenopodium album; conditions: application rates of 0.25 or 0.125 kg/ha
Source text: as §1

[3] = tested on: green foxtail; assay: greenhouse post-emergence herbicidal test; type: in vivo, Setaria eiridis; conditions: application rates of 0.25 or 0.125 kg/ha
Source text: as §1

[4] = tested on: lady's-thumb; assay: greenhouse post-emergence herbicidal test; type: in vivo, Polygonum persicaria; conditions: application rates of 0.25 or 0.125 kg/ha
Source text: as §1

[5] = tested on: black nightshade; assay: greenhouse post-emergence herbicidal test; type: in vivo, Solanum nigrum; conditions: application rates of 0.25 or 0.125 kg/ha
Source text: as §1

| Structure (SMILES) | melting point [°C] | other results |
| --- | --- | --- |
| CC(C)C(C)n1ncc(C(=O)c2ccc(S(C)(=O)=O)c(C3=NOCC3)c2Cl)c1O (stereo not drawn) [Compound 2.9] | 150 to 155 |  |
| COc1c(C(=O)c2ccc(S(C)(=O)=O)c(C3=NOCC3)c2Cl)cnn1C(C(C)C)C(C)C [Compound 2.16] | 65 to 70 |  |
| CC(C)Oc1c(C(=O)c2ccc(S(C)(=O)=O)c(C3=NOCC3)c2Cl)cnn1C(C)C [Compound 2.3] | 175 to 180 |  |
| CC(C)n1ncc(C(=O)c2ccc(S(C)(=O)=O)c(C3=NOCC3)c2Cl)c1O [Compound 2.2] | 210 to 215 | post-emergence herbicidal action against barnyard grass [1]: very good post-emergence action; post-emergence herbicidal action against lamb's-quarters [2]: very good post-emergence action; post-emergence herbicidal action against green foxtail [3]: very good post-emergence action; post-emergence herbicidal action against lady's-thumb [4]: very good post-emergence action; post-emergence herbicidal action against black nightshade [5]: very good post-emergence action |
| COc1c(C(=O)c2cnn(C(C)C)c2O)ccc(S(C)(=O)=O)c1C1=NOCC1 [Compound 2.13] | 154 to 156 |  |
| CCOc1c(C(=O)c2ccc(S(C)(=O)=O)c(C3=NOCC3)c2Cl)cnn1C(C)C [Compound 2.4] | 150 to 155 |  |
| CC(C)Oc1c(C(=O)c2ccc(S(C)(=O)=O)c(C3=NOCC3)c2Cl)cnn1C(C)C(C)C (stereo not drawn) [Compound 2.10] | 125 to 130 |  |
| CC(C)C(C(C)C)n1ncc(C(=O)c2ccc(S(C)(=O)=O)c(C3=NOCC3)c2Cl)c1O [Compound 2.15] | 200 to 205 |  |
| CC(C)(C)n1ncc(C(=O)c2ccc(S(C)(=O)=O)c(C3=NOCC3)c2Cl)c1O [Compound 2.1, 4-[2-Chloro-3-(4,5-dihydroisoxazol-3-yl)-4-methylsulfonylbenzoyl]-5-hydroxy-1-(1,1-dimethyl-1-ethyl)-1H-pyrazole] | 198 to 200 |  |
| COc1c(C(=O)c2ccc(S(C)(=O)=O)c(C3=NOCC3)c2Cl)cnn1C(C)C [Compound 2.5] | 185 to 190 |  |
